Experimental data reported in US8859581B2, “Azaheterocyclic compounds as kinase inhibitors” (Merck Patent GmbH, priority 2005, dated 2014).

biological target: T1, IGF1R (Homo sapiens, UniProt P08069); assay: Inhibition of IGF-1R (IC50): IGF1-stimulated IGF1R autophosphorylation in human tumour cells, Capture-ELISA or LUMINEX; type: cell-based; details: human tumour cells expressing IGF1R (for example MCF-7 or Calu-6); 45 min pre-treatment, IGF1 stimulation 5 min; read-out: IC50 (μM), IGF1R
T1 construct: endogenous in cells
T1 sequence (P08069 31-1367): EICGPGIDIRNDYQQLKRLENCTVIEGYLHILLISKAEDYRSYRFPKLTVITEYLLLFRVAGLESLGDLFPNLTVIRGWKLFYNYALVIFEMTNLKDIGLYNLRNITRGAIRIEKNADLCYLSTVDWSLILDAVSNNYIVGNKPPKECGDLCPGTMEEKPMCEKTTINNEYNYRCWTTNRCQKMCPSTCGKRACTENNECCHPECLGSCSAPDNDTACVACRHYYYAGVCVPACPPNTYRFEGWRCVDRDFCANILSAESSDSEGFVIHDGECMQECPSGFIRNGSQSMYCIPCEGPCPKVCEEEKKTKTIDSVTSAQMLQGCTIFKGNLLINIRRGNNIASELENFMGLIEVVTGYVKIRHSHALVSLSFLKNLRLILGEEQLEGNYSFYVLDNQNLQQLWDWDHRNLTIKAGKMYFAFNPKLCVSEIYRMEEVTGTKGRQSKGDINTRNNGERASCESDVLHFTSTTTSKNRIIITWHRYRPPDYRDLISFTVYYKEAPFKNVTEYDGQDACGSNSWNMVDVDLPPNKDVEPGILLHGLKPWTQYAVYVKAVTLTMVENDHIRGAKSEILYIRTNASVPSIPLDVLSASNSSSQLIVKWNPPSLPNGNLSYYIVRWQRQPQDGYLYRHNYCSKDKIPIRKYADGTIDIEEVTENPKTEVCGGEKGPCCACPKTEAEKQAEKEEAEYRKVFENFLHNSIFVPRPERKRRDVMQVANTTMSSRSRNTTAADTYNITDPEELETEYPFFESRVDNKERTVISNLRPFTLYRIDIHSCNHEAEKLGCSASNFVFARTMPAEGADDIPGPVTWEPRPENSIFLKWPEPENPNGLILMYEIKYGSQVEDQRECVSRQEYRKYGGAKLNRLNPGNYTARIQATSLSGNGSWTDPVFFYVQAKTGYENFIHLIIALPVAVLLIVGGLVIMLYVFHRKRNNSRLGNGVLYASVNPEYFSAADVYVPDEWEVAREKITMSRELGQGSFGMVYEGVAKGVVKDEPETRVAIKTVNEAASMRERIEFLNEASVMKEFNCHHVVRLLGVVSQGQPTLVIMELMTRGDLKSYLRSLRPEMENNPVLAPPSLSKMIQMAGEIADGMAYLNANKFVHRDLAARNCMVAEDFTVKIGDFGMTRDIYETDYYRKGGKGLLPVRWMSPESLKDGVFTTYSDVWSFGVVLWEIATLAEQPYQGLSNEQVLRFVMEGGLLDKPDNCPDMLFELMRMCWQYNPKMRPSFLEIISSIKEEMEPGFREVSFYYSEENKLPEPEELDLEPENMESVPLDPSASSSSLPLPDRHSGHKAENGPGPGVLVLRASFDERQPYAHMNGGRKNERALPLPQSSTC
Description: Cultivated human tumour cells which express the IGF1 receptor (IGF1R) (for example MCF-7 or Calu-6) are stimulated using human IGF1, the natural ligand of IGF1R. The stimulation induces autophosphorylation of tyrosine residues in the cytoplasmatic IGF1R domain, which triggers signal transduction cascades, which result in apoptosis inhibition and cell proliferation.
The amount of phosphorylated IGF1R is determined by a receptor-specific Capture-ELISA or an analogous LUMINEX assay. The IGF1R from cell lysates is bound to a 96-well ELISA plate or LUMINEX beads (“capturing”) by means of a specific antibody, and the tyrosine phosphorylation is detected using a biotin-labelled anti-phosphotyrosine antibody and a streptavidin peroxidase conjugate by a chemoluminescence method or by means of a fluorescence-labelled anti-phosphotyrosine antibody, In order to determine the activity of kinase inhibitors, cells are pre-treated with increasing concentrations of these compounds for 45 min and subsequently stimulated using IGF1 for 5 min. As internal control, the biological activity of the ligand IGF1 is checked and a concentration series of an IGF1R reference inhibitor measured.

Question: With `COc1cc(-c2cc3c(Nc4cccnc4)ccnc3[nH]2)cc(OC)c1OC` [Compound 2] as the compound, how does the IC50 read?
Answer: 0.76 µM

Question: Which IC50 does the source give for `COc1ccc(Nc2ccnc3[nH]c(-c4cc(OC)c(OC)c(OC)c4)cc23)cc1N1CCN(C)CC1` [Compound 3] here?
Answer: 0.99 µM

Question: With `COc1cc(-c2cc3c(Nc4cccc(F)c4)ccnc3[nH]2)cc(OC)c1OC` [Compound 4] as the compound, how does the IC50 read?
Answer: 0.86 µM

Question: Which IC50 does the source give for `COc1cc(-c2cc3c(Nc4cnccn4)ccnc3[nH]2)cc(OC)c1OC` [Compound 7] here?
Answer: 0.76 µM

Question: For `COc1cc(-c2cc3c(NCc4cccnc4)ccnc3[nH]2)cc(OC)c1OC` [Compound 8], which IC50 is on record?
Answer: 0.93 µM

Question: With `COc1cc(-c2cc3c(NCCc4cccnc4)ccnc3[nH]2)cc(OC)c1OC` [Compound 9] as the compound, how does the IC50 read?
Answer: 1.2 µM

Question: For `COc1cc(-c2cc3c(NCCc4ccccn4)ccnc3[nH]2)cc(OC)c1OC` [Compound 10], which IC50 is on record?
Answer: 1.4 µM

Question: Which IC50 does the source give for `COc1cc(-c2cc3c(Nc4cccc(C#N)c4)ccnc3[nH]2)cc(OC)c1OC` [Compound 11] here?
Answer: 1.6 µM

Question: For `COc1cccc(-c2cc3c(NCc4ccccc4)ccnc3[nH]2)c1` [Compound 14], which IC50 is on record?
Answer: 10 µM

Question: For `COc1ccc(CNc2ccnc3[nH]c(-c4ccc(OC)cc4)cc23)cc1` [Compound 16], which IC50 is on record?
Answer: 11 µM

Question: For `C#CCCCCNc1ccnc2[nH]c(-c3ccc(OC)cc3)cc12` [Compound 20], which IC50 is on record?
Answer: 9.9 µM

Question: For `NCCCCn1cc(-c2cccc(OCc3ccccc3)c2)c2c(N)nccc21` [Compound 68], which IC50 is on record?
Answer: 20 µM

Question: With `NCCCCCn1cc(-c2cccc(OCc3ccccc3)c2)c2c(N)nccc21` [Compound 69] as the compound, how does the IC50 read?
Answer: 5.7 µM

Question: For `NCCCn1cc(-c2cccc(OCc3ccccc3)c2)c2c(N)nccc21` [Compound 71], which IC50 is on record?
Answer: 4.8 µM

Question: With `NCCn1cc(-c2cccc(OCc3ccccc3)c2)c2cnccc21` [Compound 72] as the compound, how does the IC50 read?
Answer: 25 µM

Question: With `NCC1CC(n2cc(-c3cccc(OCc4ccccc4)c3)c3c(N)nccc32)C1` (centres unmarked) [Compound 73] as the compound, how does the IC50 read?
Answer: 0.91 µM

same assay, conditions: human tumour cells expressing IGF1R (for example MCF-7 or Calu-6); 45 min pre-treatment, IGF1 stimulation 5 min; read-out: concentration at which the substance inhibits the kinase IGF-1R to the extent of 50%

Question: Which IC50 does the source give for `COc1cc(-c2cc3c(Nc4cnc5ccccc5c4)ccnc3[nH]2)cc(OC)c1OC` [Compound 1, quinolin-3-yl-[2-(3,4,5-trimethoxyphenyl)-1H-pyrrolo[2,3b]pyridin-4-yl]amine] here?
Answer: 14 µM

tested on: not given; assay: not given; details: not given

Question: Which melting point does the source give for `COc1cc(-c2cc3c(Nc4cccc(F)c4)ccnc3[nH]2)cc(OC)c1OC` [Compound 4] here?
Answer: 80 to 81 °C

Question: Which melting point does the source give for `NCCCCCn1cc(-c2cccc(OCc3ccccc3)c2)c2c(N)nccc21` [Compound 69] here?
Answer: 75 to 78 °C

Question: For `COc1cccc(-c2cn(CCCNC(=O)c3ccccc3C(=O)O)c3cc(Cl)ncc23)c1` [Compound 79], which melting point is on record?
Answer: 100 to 101 °C

Question: Which melting point does the source give for `COc1cccc(-c2cn(C3CC(CNC(=O)c4ccccc4C(=O)O)C3)c3cc(Cl)ncc23)c1` (centres unmarked) [Compound 80] here?
Answer: 177 to 180 °C

Question: With `COc1cccc(-c2cn(CCCCCNC(=O)c3ccccc3C(=O)O)c3cc(Cl)ncc23)c1` [Compound 82] as the compound, how does the melting point read?
Answer: 97 to 99 °C

Question: Which melting point does the source give for `Clc1cc2[nH]cc(-c3cccc(OCc4ccccc4)c3)c2cn1` [Compound 83] here?
Answer: 225 to 228.5 °C
